{
  "source": "patent US20250214966A1",
  "about": "“Crystalline Salt Form Of A SHP2 Inhibitor” (Array BioPharma Inc., priority 2022, published 2025)",
  "type_in_all_cases": "physicochemical",
  "key": {"[1]": {"experiment": "TGA/DSC of salts (Table 14)", "conditions": "10° C./min", "procedure": "TGA/DSC (Table 14): Approximately, 5-10 mg of material was added into a pre-tared open aluminum pan and loaded into a TA Instruments Discovery SDT 650 Auto—Simultaneous DSC and held at room temperature. The sample was then heated at a rate of 10° C./min from 20° C. (ambient) to 400° C. during which time the change in sample weight was recorded along with the heat flow response (DSC). Nitrogen was used as the sample purge gas, at a flow rate of 200 cm3/min.\nDSC (Table 14): Approximately, 1-5 mg of material was weighed into an aluminum DSC pan and sealed nonhermetically with an aluminum lid. The sample pan was then loaded into a TA Instruments Discovery DSC 2500 differential scanning calorimeter equipped with a RC90 cooler. The sample and reference were heated to 310° C. at a scan rate of 10° C./min and the resulting heat flow response monitored. The sample was re-cooled to 20° C. and then reheated again to 205° C. all at 10° C./min. Nitrogen was used as the purge gas, at a flow rate of 50 cm^3/min."}, "[2]": {"experiment": "Dynamic vapor sorption of salts (Table 14)", "conditions": "25° C.; for DVS weight change: ramping 40-90% RH", "procedure": "DVS (Table 14): Approximately, 10-20 mg of sample was placed into a mesh vapor sorption balance pan and loaded into a DVS Intrinsic dynamic vapor sorption balance by Surface Measurement Systems. The sample was subjected to a ramping profile from 40-90% relative humidity (RH) at 10% increments, maintaining the sample at each step until a stable weight had been achieved (dm/dt 0.004%, minimum step length 30 minutes, maximum step length 500 minutes) at 25° C. After completion of the sorption cycle, the sample was dried using the same procedure to 0% RH and then a second sorption cycle back to 40% RH. Two cycles were performed. Theweight change during the sorption/desorption cycles were plotted, allowing for the hygroscopic nature of the sample to be determined. XRPD analysis was then carried out on any solid retained. […] The sample was subjected to a ramping profile from 40-90% relative humidity (RH) at 10% increments, maintaining the sample at each step until a stable weight had been achieved (dm/dt 0.004%, minimum step length 30 minutes, maximum step length 500 minutes) at 25° C. After completion of the sorption cycle, the sample was dried using the same procedure to 0% RH and then a second sorption cycle back to 40% RH. Two cycles were performed. The weight change during the sorption/desorption cycles were plotted, allowing for the hygroscopic nature of the sample to be determined. XRPD analysis was then carried out on any solid retained."}, "[3]": {"experiment": "Solubility of salts in buffer systems at 37° C. (Table 14)", "conditions": "20 mg in 1 mL; for solubility at 18 h: thermodynamic from solid", "procedure": "The solubility (Table 14) was determined by adding 20 mg of salts (Examples 3 to 8) into 3 HPLC vials, to each vial, a magnetic stirrer bar was added along with 1 mL of the appropriate buffer system (pH 1.2 HCl, pH 4.5 sodium acetate, or pH 6.8 phosphate). The samples were agitated at 37° C. for […]. After 24 hours, the slurries were isolated by centrifugation filtration and isolated mother liquors were analyzed by HPLC.\nHPLC method (Table 14): A Dionex Ultimate 3000 HPLC instrument was used with a Waters XSelect HSS T3 Column (100 angstrom, 4.6×150 mm, 5 μm). The column temperature was set to 20° C., the UV wavelength set to 254 nm, the injection volume was 10 μL, with a flow rate of 1.0 mL/min. 10 mM ammonium acetate adjusted to pH 4.8 was used as a mobile phase A, and acetonitrile was used as mobile phase B. The gradient method was set up to achieve 15% mobile phase B at 0 minutes, 95% mobile phase B at 17 minutes—held until 22 minutes, 15% mobile phase B at 22.1 minutes—held until 28 minutes."}, "[4]": {"conditions": "pH 1.2 HCl buffer, simulated gastric fluid, pH 1.2 HCl, read-out: Solubility pH 1.2 HCl"}, "[5]": {"conditions": "pH 4.5 sodium acetate buffer, aqueous buffer, pH 4.5 sodium acetate, read-out: Solubility pH 4.5 Sodium Acetate"}, "[6]": {"conditions": "pH 6.8 phosphate buffer, aqueous buffer, pH 6.8 phosphate, read-out: Solubility Ph 6.8 Phosphate"}},
  "note": "Read-outs that look alike come from different tables or passages of the source.",
  "data": [
    {"smiles": "Nc1nccc(Sc2cnc(N3CCC4(CC3)Cc3ccccc3[C@H]4N)nn2)c1Cl.O=C(O)/C=C/C(=O)O", "note": "[Example 6, (S)-1′-(6-((2-Amino-3-chloropyridin-4-yl)thio)-1,2,4-triazin-3-yl)-1,3-dihydrospiro[indene-2,4′-piperidin]-1-amine fumarate]", "values": [
      {"measurement": "TGA/DSC Melt/degradation", "setting": "[1]", "value": 225.7, "unit": "°C"},
      {"measurement": "DVS hygroscopic nature", "setting": "[2]", "value": "Hygroscopic"},
      {"measurement": "DVS weight change", "setting": "[2]", "value": 2.1, "unit": "%"},
      {"measurement": "solubility at 18 h", "setting": "[3]; [4]", "value": "> 20000", "unit": "µg/mL"},
      {"measurement": "solubility at 18 h", "setting": "[3]; [5]", "value": 200, "unit": "µg/mL"},
      {"measurement": "solubility at 18 h", "setting": "[3]; [6]", "value": 400, "unit": "µg/mL"}
    ]},
    {"smiles": "Nc1nccc(Sc2cnc(N3CCC4(CC3)Cc3ccccc3[C@H]4N)nn2)c1Cl.O=C(O)C(O)C(O)C(=O)O", "note": "[Example 7, (S)-1′-(6-((2-Amino-3-chloropyridin-4-yl)thio)-1,2,4-triazin-3-yl)-1,3-dihydrospiro[indene-2,4′-piperidin]-1-amine tartrate]", "values": [
      {"measurement": "TGA/DSC Melt/degradation", "setting": "[1]", "value": 187, "unit": "°C"},
      {"measurement": "DVS hygroscopic nature", "setting": "[2]", "value": "Hygroscopic"},
      {"measurement": "DVS weight change", "setting": "[2]", "value": 5.8, "unit": "%"},
      {"measurement": "solubility at 18 h", "setting": "[3]; [4]", "value": "> 20000", "unit": "µg/mL"},
      {"measurement": "solubility at 18 h", "setting": "[3]; [5]", "value": 400, "unit": "µg/mL"},
      {"measurement": "solubility at 18 h", "setting": "[3]; [6]", "value": 1200, "unit": "µg/mL"}
    ]},
    {"smiles": "Nc1nccc(Sc2cnc(N3CCC4(CC3)Cc3ccccc3[C@H]4N)nn2)c1Cl.O=P(O)(O)O", "note": "[Example 4, (S)-1′-(6-((2-Amino-3-chloropyridin-4-yl)thio)-1,2,4-triazin-3-yl)-1,3-dihydrospiro[indene-2,4′-piperidin]-1-amine phosphate (Pattern 1)]", "values": [
      {"measurement": "TGA/DSC Melt/degradation", "setting": "[1]", "value": 100, "unit": "°C"},
      {"measurement": "DVS hygroscopic nature", "setting": "[2]", "value": "Hygroscopic"},
      {"measurement": "DVS weight change", "setting": "[2]", "value": 6.3, "unit": "%"},
      {"measurement": "Solubility pH 1.2 HCl (mg/mL)", "setting": "[3]; pH 1.2 HCl", "value": ">20", "unit": "mg/mL"},
      {"measurement": "Solubility pH 4.5 Sodium Acetate", "setting": "[3]; pH 4.5 sodium acetate", "value": 0.3, "unit": "mg/mL"},
      {"measurement": "Solubility Ph 6.8 Phosphate", "setting": "[3]; pH 6.8 phosphate", "value": 9300, "unit": "µg/mL"}
    ]},
    {"smiles": "Nc1nccc(Sc2cnc(N3CCC4(CC3)Cc3ccccc3[C@H]4N)nn2)c1Cl.O=P(O)(O)O", "note": "[Example 5, (S)-1′-(6-((2-Amino-3-chloropyridin-4-yl)thio)-1,2,4-triazin-3-yl)-1,3-dihydrospiro[indene-2,4′-piperidin]-1-amine phosphate (Pattern 2)]", "values": [
      {"measurement": "TGA/DSC Melt/degradation", "setting": "[1]", "value": 174, "unit": "°C"},
      {"measurement": "DVS hygroscopic nature", "setting": "[2]", "value": "Hygroscopic"},
      {"measurement": "DVS weight change", "setting": "[2]", "value": 7.6, "unit": "%"},
      {"measurement": "Solubility pH 1.2 HCl (mg/mL)", "setting": "[3]; pH 1.2 HCl", "value": ">20", "unit": "mg/mL"},
      {"measurement": "Solubility pH 4.5 Sodium Acetate", "setting": "[3]; pH 4.5 sodium acetate", "value": 0.4, "unit": "mg/mL"},
      {"measurement": "Solubility Ph 6.8 Phosphate", "setting": "[3]; pH 6.8 phosphate", "value": 1900, "unit": "µg/mL"}
    ]}
  ]
}
